Target: T1, recombinant autotaxin (Homo sapiens, UniProt Q13822)
T1 construct: made in house; host or cells: Hi5 insect cells (baculovirus)
Test: Autotaxin test (enzyme test), Amplex Red
Type: biochemical
Conditions: Autotaxin inhibition (enzyme test), substrate LPC 75 μM
Method: The autotaxin activity is measured indirectly using Amplex Red reagent. Amplex Red is measured here as fluorogenic indicator for the H2O2 formed. In detail, autotaxin converts the substrate lysophosphatidylcholine (LPC) into phosphocholine and lysophosphatidylic acid (LPA). After this reaction, the phosphocholine is reacted with alkaline phosphatase to give inorganic phosphate and choline. In the next step, choline is oxidised by choline oxidase to give betaine, with formation of H2O2. H2O2 reacts with Amplex Red reagent in the presence of peroxidase (horseradish peroxidase) in a 1:1 stoichiometry and forms the highly fluorescent resorufin. The fluorescence is measured in a reaction-dependent kinetic mode in order that fluorescent signals from possible other fluorescent substances which are not involved in the reaction can be corrected out.
1.5 μl of a standard solution or of the test substances (substances with the name A(n))in individual concentrations dissolved in 20 mM Hepes pH 7.2 with a maximum of 7.7% of DMSO are pre-incubated together with 10 μl (16 ng) of highly purified recombinant autotaxin in a black microtitre plate provided with 384 wells at 22° C. for 30 min. The reaction is then initiated by addition of 5 μl of L-α-lysophosphatidylcholine (LPC), where the final concentration of LPC is 75 μM. The mixture is incubated at 37° C. for 90 min. After the incubation, Amplex Red reagent, peroxidase (horseradish peroxidase) and choline oxidase is added, and the fluorescence is immediately measured at 612 nm with excitation of 485 nm in a “Tecan Ultra multimode” reader. The activity of autotaxin is calculated indirectly via detection of the H2O2 formed.
• Microtitre plate: PS microplate, 384 wells, small volume, black Corning, Cat#3677 • Protein: recombinant autotaxin (Baculovirale Hi5 Expression) • Substrate: L-α-lysophosphatidylcholine (chicken egg)); Avanti Polar Lipids # 830071 P • Standard: C14 LPA, Avanti Polar Lipids, Cat# 857120P • Detection reagent: Amplex Red reagent; Invitrogen # A12222; dissolved in 1.923 ml of DMSO peroxidase type VI-A (horseradish) from Sigma # P6782; dissolved in 7.45 ml of test buffer, choline oxidase; Sigma # C5896; dissolved in 2.47 ml of test buffer • Detection reagent mix: 1:100 dilution of Amplex Red reagent in test buffer • Test buffer: 200 mM Tris HCl, Merck, Cat # 1.08219, pH 7.9, 0.1% of BSA, lipid-free, Roche Cat#775835

IC50 (TABLE 1 (A compounds)) | IC50 (TABLE 2 (B compounds)) | SMILES
> 1000 nM |  | O=C(CN1CCc2nc3ccccc3c(C(=O)N3CCN(CCO)CC3)c2C1)Nc1ccc(F)c(Cl)c1 [Compound A74, N-(3-Chloro-4-fluorophenyl)-2-{10-[4-(2-hydroxyethyl)piperazine-1-carbonyl]-3,4-dihydro-1H-benzo[b][1,6]naphthyridin-2-yl}acetamide]
100 to 1000 nM |  | O=C(CN1CCc2nc3ccccc3c(C(=O)N3CCN(CCO)CC3)c2C1)Nc1cc(Cl)ccc1Cl [Compound A75, N-(2,5-Dichlorophenyl)-2-{10-[4-(2-hydroxyethyl)piperazine-1-carbonyl]-3,4-dihydro-1H-benzo[b][1,6]naphthyridin-2-yl}acetamide]
> 1000 nM |  | O=C(CN1CCc2nc3ccccc3c(C(=O)N3CCN(CCO)CC3)c2C1)Nc1ccc(Cl)c(Cl)c1 [Compound A76, N-(3,4-Dichlorophenyl)-2-{10-[4-(2-hydroxyethyl)piperazine-1-carbonyl]-3,4-dihydro-1H-benzo[b][1,6]naphthyridin-2-yl}acetamide]
100 to 1000 nM |  | O=C(CN1CCc2nc3ccccc3c(C(=O)N3CCN(CCO)CC3)c2C1)Nc1cc(Cl)ccc1F [Compound A78, N-(5-Chloro-2-fluorophenyl)-2-{10-[4-(2-hydroxyethyl)piperazine-1-carbonyl]-3,4-dihydro-1H-benzo[b][1,6]naphthyridin-2-yl}acetamide]
> 1000 nM |  | O=C(CN1CCc2nc3ccccc3c(C(=O)N3CCN(CCO)CC3)c2C1)Nc1cc(Cl)cc2ncoc12 [Compound A79, N-(5-Chlorobenzooxazol-7-yl)-2-{10-[4-(2-hydroxyethyl)piperazine-1-carbonyl]-3,4-dihydro-1H-benzo[b][1,6]naphthyridin-2-yl}acetamide]
100 to 1000 nM |  | COc1c(Cl)cc(Cl)cc1NC(=O)CN1CCc2nc3ccccc3c(C(=O)N3CCN(CCO)CC3)c2C1 [Compound A80, N-(3,5-Dichloro-2-methoxyphenyl)-2-{10-[4-(2-hydroxyethyl)piperazine-1-carbonyl]-3,4-dihydro-1H-benzo[b][1,6]naphthyridin-2-yl}acetamide]
100 to 1000 nM |  | COc1ccc(Cl)cc1N(C)C(=O)CN1CCc2nc3ccccc3c(C(=O)N3CCOCC3)c2C1 [Compound A87, N-(5-Chloro-2-methoxyphenyl)-N-methyl-2-[10-(morpholine-4-carbonyl)-3,4-dihydro-1H-benzo[b][1,6]naphthyridin-2-yl]acetamide]
 | > 1000 nM | CNC(=O)C(NC(=O)CN1CCc2nc3ccccc3c(C(=O)N3CCN(CCO)CC3)c2C1)c1ccc(Cl)cc1 (stereo not drawn) [Compound B2, 2-(4-Chlorophenyl)-2-(2-{10-[4-(2-hydroxyethyl)piperazine-1-carbonyl]-3,4-dihydro-1H-benzo[b][1,6]naphthyridin-2-yl}acetylamino)-N-methylacetamide]
 | > 1000 nM | O=C(CN1CCc2nc3ccccc3c(C(=O)N3CCN(CCO)CC3)c2C1)Nc1cc(Cl)ccc1OC(F)(F)F [Compound B4, N-(5-Chloro-2-trifluoromethoxyphenyl)-2-{10-[4-(2-hydroxyethyl)piperazine-1-carbonyl]-3,4-dihydro-1H-benzo[b][1,6]naphthyridin-2-yl}acetamide]
 | > 1000 nM | O=C(CN1CCc2nc3ccccc3c(C(=O)N3CCOCC3)c2C1)Nc1cc(Cl)ccc1OC(F)(F)F [Compound B5, N-(5-Chloro-2-trifluoromethoxyphenyl)-2-[10-(morpholine-4-carbonyl)-3,4-dihydro-1H-benzo[b][1,6]naphthyridin-2-yl]acetamide]
 | > 1000 nM | COc1ccc(Cl)cc1NCCN1CCc2nc3ccccc3c(C(=O)N3CCN(CCO)CC3)c2C1 [Compound B14, {2-[2-(5-Chloro-2-methoxyphenylamino)ethyl]-1,2,3,4-tetrahydrobenzo-[b][1,6]naphthyridin-10-yl}-[4-(2-hydroxyethyl)piperazin-1-yl]methanone]
 | > 1000 nM | CSc1ccc(Cl)cc1NC(=O)CN1CCc2nc3ccccc3c(C(=O)N3CCN(CCO)CC3)c2C1 [Compound B17, N-(5-Chloro-2-methylsulfanylphenyl)-2-{10-[4-(2-hydroxyethyl)piperazine-1-carbonyl]-3,4-dihydro-1H-benzo[b][1,6]naphthyridin-2-yl}acetamide]
 | > 1000 nM | COc1ccc(Cl)cc1-c1nc(CN2CCc3nc4ccccc4c(C(=O)NC4CCN(C)CC4)c3C2)no1 [Compound B20, N-(1-Methylpiperidin-4-yl)-2-[5-(5-chloro-2-methoxyphenyl)-1,2,4-oxadiazol-3-ylmethyl]-1,2,3,4-tetrahydrobenzo[b][1,6]naphthyridine-10-carboxamide]
 | > 1000 nM | O=C(CN1CCc2nc3ccccc3c(C(=O)N3CCN(CCO)CC3)c2C1)Nc1cccc(-c2ccccc2)c1 [Compound B21, N-Biphenyl-3-yl-2-{10-[4-(2-hydroxyethyl)piperazine-1-carbonyl]-3,4-dihydro-1H-benzo[b][1,6]naphthyridin-2-yl}acetamide]
 | 100 to 1000 nM | COc1ccc(Cl)cc1NC(=O)CN1CCc2nc3ccccc3c(C(=O)Nc3ccc4[nH]nnc4c3)c2C1 [Compound B22, N-(1H-Benzotriazol-5-yl)-2-[(5-chloro-2-methoxyphenylcarbamoyl)methyl]-1,2,3,4-tetrahydrobenzo[b][1,6]naphthyridine-10-carboxamide]
 | 100 to 1000 nM | COc1c(F)cc(Br)cc1NC(=O)CN1CCc2nc3ccccc3c(C(=O)N3CCOCC3)c2C1 [Compound B24, N-(5-Bromo-3-fluoro-2-methoxyphenyl)-2-[10-(morpholine-4-carbonyl)-3,4-dihydro-1H-benzo[b][1,6]naphthyridin-2-yl]acetamide]
 | > 1000 nM | COc1ccc(Cl)cc1-c1nnc(CN2CCc3nc4ccccc4c(C(=O)NCCN(C)C)c3C2)o1 [Compound B29, N-(2-Dimethylaminoethyl)-2-[5-(5-chloro-2-methoxyphenyl)-1,3,4-oxadiazol-2-ylmethyl]-1,2,3,4-tetrahydrobenzo[b][1,6]naphthyridine-10-carboxamide]
 | > 1000 nM | COc1ccc(Cl)cc1-c1nnc(CN2CCc3nc4ccccc4c(C(=O)NCC[N+](C)(C)Cc4nnc(-c5cc(Cl)ccc5OC)o4)c3C2)o1 [Compound B30, [5-(5-Chloro-2-methoxyphenyl)-1,3,4-oxadiazol-2-ylmethyl]-[2-({2-[5-(5-chloro-2-methoxyphenyl)-1,3,4-oxadiazol-2-ylmethyl]-1,2,3,4-tetrahydrobenzo[b][1,6]naphthyridine-10-carbonyl}amino)ethyl]dimethylammonium]
 | > 1000 nM | COCCNC(=O)c1c2c(nc3ccccc13)CCN(Cc1nnc(-c3cc(Cl)ccc3OC)o1)C2 [Compound B31, N-(2-Methoxyethyl)-2-[5-(5-chloro-2-methoxyphenyl)-1,3,4-oxadiazol-2-yl-methyl]-1,2,3,4-tetrahydrobenzo[b][1,6]naphthyridine-10-carboxamide]
 | > 1000 nM | CCNC(=O)c1c2c(nc3ccccc13)CCN(Cc1nnc(-c3cc(Cl)ccc3OC)o1)C2 [Compound B32, N-Ethyl-2-[5-(5-chloro-2-methoxyphenyl)-1,3,4-oxadiazol-2-ylmethyl]-1,2,3,4-tetrahydrobenzo[b][1,6]naphthyridine-10-carboxamide]
 | > 1000 nM | COc1ccc(Cl)cc1-c1nnc(CN2CCc3nc4ccccc4c(C(=O)NC4CCN(C)CC4)c3C2)o1 [Compound B33, N-(1-Methylpiperidin-4-yl)-2-[5-(5-chloro-2-methoxyphenyl)-1,3,4-oxadiazol-2-ylmethyl]-1,2,3,4-tetrahydrobenzo[b][1,6]naphthyridine-10-carboxamide]

Reference: patent US20110230471A1, “BENZONAPHTYRIDINE COMPOUNDS AS INHIBITORS OF AUTOTAXIN” (MERCK PATENT GESELLSCHAFT MIT BESCHRANKTER HAFTUNG, priority 2008, published 2011)
